Data on two compounds can be found in patent US9897551B2, “Method for accelerated degradation of thermoplastics” (priority 2013, dated 2018).

The nature of data set [1]: pKa values of end-capping agents. The note with it: approximated based on the values of similar structures. The format is physicochemical.
The conditions of data set [2]: values taken from literature references (footnote); cited from earlier work.

Where two headings read alike, the source gives them in different places.

The term pKa denotes the negative logarithm of the acid dissociation constant. Take `CC(C)(c1ccccc1)c1ccc(O)cc1` [p-cumylphenol]: in data set [1], the pKa is 10.5.
On to `COc1ccc(O)cc1` [p-methoxyphenol], for which, in data set [2], the pKa is 10.4.
